Laboratory results: patent publication US4246270A, “3-Fluorobenzodiazepines and compositions and uses thereof” (E. I. Du Pont de Nemours and Company, priority 1976, dated 1981)
Read-outs that look alike come from different tables or passages of the source.

Experiments:
[1] = tested on: PTZ-induced clonic convulsions; assay: Antipentylenetetrazole (PTZ) test; format: in vivo; settings: mouse; for ED50: 0.5 h, oral (intubated), 30 minutes before PTZ 40 mg/kg iv, read-out: Anti-PTZ, mouse ED50
Protocol: (§1) Standard procedures for detecting and comparing the tranquilizer, muscle-relaxant, and sedative activity of compounds in this series for which there is a correlation with human efficacy are the following: pinna reflex tests, antipentylenetetrazole test, rat activity suppression test (RAST), muscle relaxant (anti-straub tail) test, and mouse activity suppression test (MAST).
Fasted female white mice, 10 per dose are intubated with drug in vehicle as above at doses such as 0, 1, 3, 9, 27 and 81 mg/kg. Thirty minutes later the mice are dosed intravenously with PTZ (Metrazol®^1) at 40 mg/kg (ED98 for clonic convulsions). Dosed animals which remain on a 4"×4" platform for 20 seconds are considered protected. Quantal ED50 's are calculated by the moving average method.
1 Original brand of pentylenetetrazole; sterile 10% aqueous solution for parenteral injection, Knoll Pharmaceutical Company.
(§2) Potency in the antipentylenetetrazole (PTZ), the MAST, and the RAST tests indicates a potent antianxiety agent. Great potency for blockade of the mouse auditory pinna reflex with little or no effect on tactile pinna reflex is characteristic of minor tranquilizers.

[2] = tested on: morphine-induced Straub tail; assay: Muscle relaxant (anti-Straub tail) test; format: in vivo; settings: 0.5 h; mouse, oral (intubated), 30 minutes; blockade of morphine-induced Straub tail (53.7 mg/kg sc)
Excerpt: as §1
Fasted female white mice, 5 per dose are intubated with test drug. Twenty-five minutes later morphine sulfate is given subcutaneously at 53.7 mg/kg. Thirty minutes after test drug the mice are observed for presence of Straub tail. Quantal ED50 values for blockade of morphine-induced Straub tail are calculated.
as §2

[3] = tested on: suppression of exploratory locomotor behavior by punishment; assay: Mouse activity suppression test (MAST); format: in vivo; settings: oral, footnote *ED20%
Excerpt: as §1
The Mouse Activity Suppression Test (MAST) is a model system designed to detect compounds with possible anti-anxiety activity in humans. […] The punishment, an electric shock applied through the mouse's paws, quickly extinguishes normal behavior.
The test procedure is modified from Boissier, et al., European J. Pharm., 4, 145-151 (1968). Female white mice, fasted 16-22 hours, are randomly distributed to fiberglass holding boxes. Mice in groups of 10-20 are dosed orally and returned to their holding boxes until test time. Test drug suspensions or solutions are prepared by sonication in 1% Methocel®. Typical dose ranges include 0.5, 1, 2, and 4 mg/k or 1, 3, 9, 27, 81 mg/kg plus a vehicle control and are selected to include one dose at which an effect such as sedation, stimulation, muscle weakness or analgesia was seen.
The test apparatus is an opaque, black plastic box with a clear lid and a stainless steel grid floor. The floor of the test box is marked off into four squares of equal size.
After dosing, a mouse is gently place in one corner of the testing box and during the next minute each time the mouse makes a full crossing from one square section of the box to another the floor is electrified with 0.4 ma current for 2.0 seconds.
The number of shocks received by each mouse is recorded and the mean number of shocks/dose (X) is determined. When X drug at any dose is statistically greater than X controls (Student's t test), antagonism of suppression obtains and the drug is presumed to have anti-anxiety activity.
as §2

auditory pinna reflex = assay: Auditory pinna reflex test (mouse); format: in vivo; settings: 0.5 h, oral (intubated), 30 minutes
Protocol: as §1
(§3) Fasted female white mice, 5 per dose are intubated with drug at 4, 12, 36, 108 and 324 mg/kg in 1% Methocel®^- 1.25% Tween 80®, at 10 ml/kg. The auditory and tactile pinna are tested at 0.5, 2, 5 and 24 hours.
The mouse is placed on a horizontal bar 9 cm from a Galton whistle adjusted for 13 Kc. Failure to flatten the ears during one or 2 short bursts of sound constitutes loss of auditory pinna reflex.
as §2

tactile pinna reflex = assay: Tactile pinna reflex test (mouse); format: in vivo; settings: 0.5 h, oral (intubated), 30 minutes
Protocol: as §1, §3
The mouse is held by the tail and the hairs inside the right ear are touched by the fine wire stylus from a 27 gauge needle. Failure of the mouse to twitch or move the head constitutes loss of the tactile pinna reflex.
as §2

[4] = man and other animals; cited from earlier work
[5] = warming in alcohol; cited from earlier work
[6] = tested on: line crossings suppressed by shock; assay: Rat activity suppression test (RAST); format: in vivo; settings: 0.5 h, oral (intubated), 30 minutes, dose which would increase crossings 50% over controls
Excerpt: as §1
The test apparatus consists of a circular cage with lid and with a floor of electrifiable steel bars. D.C. shock current is supplied to the bars such that touching any 2 alternate bars shocks the rat. The floor is marked to yield 4 equal pie-shaped sectors.
Fasted male white rats, 10 per dose are intubated with drug as described above for mice. Thirty minutes after dosing a rat is placed in the test apparatus and is allowed 30 seconds to transverse 25% of the floor area after which he receives a shock. The rat is allowed 5 seconds to recover from the shock, then its "line crossings" are counted for 60 seconds. The mean number of crossings per rat for each dose are determined and are compared to the mean number of crossings of the vehicle treated controls. ED50 %, the dose which would increase the number of crossings 50% over controls, is determined graphically.
as §2

[7] = 0.5 h, 30 minutes, read-out: MAST, ED20%

C1CCc2nnnn2CC1 [PTZ, pentylenetetrazole, reference compound]
ED98 ([1]; intravenous PTZ challenge): 40 mg/kg

O=C1Nc2ccc(Cl)cc2C(c2ccccc2)=NC1F (stereo not drawn) [X=Cl, Y=H, Z=H, 3-Fluoro-1,3-dihydro-7-chloro-5-phenyl-2H-1,4-benzodiazepin-2-one]
ED50 [2]: 0.1 mg/kg | ED20 ([3]; 1 h, 60 minutes (footnote d), read-out: MAST, ED20% (at 60 minutes)): 0.37 mg/kg | ED50 (auditory pinna reflex): 2.6 mg/kg | ED50 [1]: 0.39 mg/kg

O=C1Nc2ccc(Br)cc2C(c2ccccc2F)=NC1F (stereo not drawn) [X=Br, Y=F, Z=H, 3-Fluoro-7-bromo-5-(2-fluorophenyl)-1,3-dihydro-2H-benzodiazepin-2-one]
ED50 (tactile pinna reflex): 300 mg/kg | ED50 (auditory pinna reflex): < 4 mg/kg | ED50 [1]: 0.12 mg/kg

C=CCN1C(=O)C(F)N=C(c2ccccc2)c2cc(Cl)ccc21 (stereo not drawn) [X=Cl, Y=H, Z=CH2 CHCH2, 3-Fluoro-1-(allyl)-7-chloro-5-phenyl-2H-1,4-benzodiazepin-2-one]
ED50 [2]: < 1 mg/kg | ED20 [3, 7]: 2.9 mg/kg | ED50 (tactile pinna reflex): 100 mg/kg | ED50 (auditory pinna reflex): 20 mg/kg | ED50 [1]: 6.1 mg/kg

CCN(CC)CCN1C(=O)CN=C(c2ccccc2F)c2cc(Cl)ccc21 [flurazepam]
metabolism [4]: metabolized in man and other animals by oxidative attack at the 3-position

O=C1Nc2ccc(Cl)cc2C(c2ccccc2)=NC1Cl (stereo not drawn) [3,7-dichloro-5-phenyl-1,3-dihydro-2H-1,4-benzodiazepin-2-one]
stability (3-chloro derivative) [5]: extremely reactive: mere warming in alcohol caused decomposition

O=C1Nc2ccc(Cl)cc2C(c2ccccc2F)=NC1F (stereo not drawn) [X=Cl, Y=F, Z=H, 3-Fluoro-1,3-dihydro-7-chloro-5-(2-fluorophenyl)-2H-1,4-benzodiazepin-2-one]
ED20 [3, 7]: 0.48 mg/kg | ED50 (tactile pinna reflex): 200 mg/kg | ED50 (auditory pinna reflex): 12 mg/kg | ED50 [1]: 0.42 mg/kg

O=C1CN=C(c2ccccc2)c2cc([N+](=O)[O-])ccc2N1 [nitrazepam]
metabolism [4]: metabolized in man and other animals by oxidative attack at the 3-position

CN1C(=O)CN=C(c2ccccc2)c2cc(Cl)ccc21 [Diazepam, reference compound]
ED50 [6]: 1.5 mg/kg | ED50 [2]: 1 mg/kg | ED20 [3, 7]: 1.1 mg/kg | ED50 (tactile pinna reflex): 187 mg/kg | ED50 (auditory pinna reflex): 4 mg/kg | ED50 [1]: 0.49 mg/kg

CN1C(=O)C(F)N=C(c2ccccc2)c2cc(Cl)ccc21 (stereo not drawn) [X=Cl, Y=H, Z=CH3, 3-Fluoro-1,3-dihydro-1-methyl-7-chloro-5-phenyl-2H-1,4-benzodiazepin-2-one]
ED50 [6]: 0.45 mg/kg | ED50 [2]: 0.25 mg/kg | ED20 [3, 7]: 0.25 mg/kg | ED50 (tactile pinna reflex): 121 mg/kg | ED50 (auditory pinna reflex): 5 mg/kg | ED50 [1]: 0.18 mg/kg

CN1C(=O)C(F)N=C(c2ccccc2F)c2cc(Br)ccc21 (stereo not drawn) [X=Br, Y=F, Z=CH3, 3-Fluoro-7-bromo-5-(2-fluorophenyl)-1,3-dihydro-1-methyl-2H-1,4-benzodiazepin-2-one]
ED50 (tactile pinna reflex): < 324 mg/kg | ED50 (auditory pinna reflex): < 4 mg/kg | ED50 [1]: 0.06 mg/kg

CN1C(=O)C(F)N=C(c2ccccc2Cl)c2cc(Cl)ccc21 (stereo not drawn) [X=Cl, Y=Cl, Z=CH3, 3-Fluoro-7-chloro-5-(2-chlorophenyl)-1,3-dihydro-1-methyl-2H-1,4-benzodiazepin-2-one]
ED50 (tactile pinna reflex): > 324 mg/kg | ED50 (auditory pinna reflex): 60 mg/kg | ED50 [1]: 0.09 mg/kg

O=C1Nc2ccc(Br)cc2C(c2ccccc2)=NC1F (stereo not drawn) [X=Br, Y=H, Z=H, 3-Fluoro-7-bromo-1,3-dihydro-5-phenyl-2H-1,4-benzodiazepin-2-one]
ED50 [6]: 0.15 mg/kg | ED50 [2]: 0.05 mg/kg | ED20 [3, 7]: 0.04 mg/kg | ED50 (tactile pinna reflex): 100 mg/kg | ED50 (auditory pinna reflex): 1.2 mg/kg | ED50 [1]: 0.74 mg/kg

CNC(=O)N1C(=O)C(F)N=C(c2ccccc2)c2cc(Cl)ccc21 (stereo not drawn) [X=Cl, Y=H, Z=[drawing 57]]
ED50 (tactile pinna reflex): 36 mg/kg | ED50 (auditory pinna reflex): < 4 mg/kg

CN1C(=O)C(F)N=C(c2ccccc2F)c2cc(Cl)ccc21 (stereo not drawn) [X=Cl, Y=F, Z=CH3, 3-Fluoro-1,3-dihydro-1-methyl-7-chloro-5-(2-fluorophenyl)-2H-1,4-benzodiazepin-2-one]
ED50 [6]: 0.24 mg/kg | ED50 [2]: 0.06 mg/kg | ED20 [3, 7]: 0.05 mg/kg | ED50 (tactile pinna reflex): 200 mg/kg | ED50 (auditory pinna reflex): 7 mg/kg | ED50 [1]: 0.12 mg/kg

O=C1Nc2ccc(Cl)cc2C(c2ccccc2Cl)=NC1F (stereo not drawn) [X=Cl, Y=Cl, Z=H, 3-Fluoro-7-chloro-5-(2-chlorophenyl)-1,3-dihydro-2H-1,4-benzodiazepin-2-one]
ED50 [2]: < 0.33 mg/kg | ED20 [3, 7]: 1.15 mg/kg | ED50 (tactile pinna reflex): > 324 mg/kg | ED50 (auditory pinna reflex): < 4 mg/kg | ED50 [1]: 0.34 mg/kg

O=C1Nc2ccc(Cl)cc2C(c2ccccc2)=NC1O (stereo not drawn) [Oxazepam, reference compound]
ED50 [6]: 2.5 mg/kg | ED50 [2]: 0.26 mg/kg | ED20 [3, 7]: 2.7 mg/kg | ED50 (auditory pinna reflex): 2.9 mg/kg | ED50 [1]: 2 mg/kg

CN1C(=O)C(F)N=C(c2ccccc2)c2cc(Br)ccc21 (stereo not drawn) [X=Br, Y=H, Z=CH3, 3-Fluoro-7-bromo-1,3-dihydro-1-methyl-5-phenyl-2H-1,4-benzo-diazepin-2-one]
ED50 [6]: 1.7 mg/kg | ED20 [3, 7]: 0.16 mg/kg | ED50 (tactile pinna reflex): 300 mg/kg | ED50 (auditory pinna reflex): 1.3 mg/kg | ED50 [1]: 0.22 mg/kg

CNC1=Nc2ccc(Cl)cc2C(c2ccccc2)=[N+]([O-])C1 [Chlorodiazepoxide, reference compound]
ED50 [6]: 6 mg/kg | ED50 [2]: 1.9 mg/kg | ED20 [3, 7]: 8.5 mg/kg | ED50 (tactile pinna reflex): 320 mg/kg | ED50 (auditory pinna reflex): 70 mg/kg | ED50 [1]: 7.5 mg/kg

CCN1C(=O)C(F)N=C(c2ccccc2)c2cc(Cl)ccc21 (stereo not drawn) [X=Cl, Y=H, Z=C2 H5, 3-Fluoro-1,3-dihydro-1-ethyl-7-chloro-5-phenyl-2H-1,4-benzodiazepin-2-one]
ED50 [2]: < 0.24 mg/kg | ED20 [3, 7]: 0.45 mg/kg | ED50 (tactile pinna reflex): > 324 mg/kg | ED50 (auditory pinna reflex): 12 mg/kg | ED50 [1]: 0.56 mg/kg
